IC50 data for 15 compounds are collected here from patent US8501782B2, “Piperidinyl derivatives as modulators of chemokine receptor activity” (Bristol-Myers Squibb Company, priority 2007, dated 2013).

pIC50: −log10 of the molar value.

The target of the assay is T1, CCR1 (Homo sapiens, UniProt P32246).
T1 construct: THP-1 monocytic leukemia cells are combined with 100 μg of LS WGA PS beads; endogenous in cells; host or cells: THP-1 human monocytic leukemia cells
T1 sequence (P32246 1-355): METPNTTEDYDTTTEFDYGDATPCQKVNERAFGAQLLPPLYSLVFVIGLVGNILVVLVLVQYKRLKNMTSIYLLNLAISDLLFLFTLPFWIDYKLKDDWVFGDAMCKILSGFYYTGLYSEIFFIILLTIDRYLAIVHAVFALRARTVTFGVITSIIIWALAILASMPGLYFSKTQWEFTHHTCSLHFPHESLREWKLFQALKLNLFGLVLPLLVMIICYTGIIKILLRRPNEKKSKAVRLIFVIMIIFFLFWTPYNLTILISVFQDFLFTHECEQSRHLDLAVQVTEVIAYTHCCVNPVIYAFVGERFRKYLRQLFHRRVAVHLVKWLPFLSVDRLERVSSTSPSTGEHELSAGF
The assay is described as follows: CCR1 ligand binding scintillation proximity assay (SPA): antagonism of MIP-1α binding to human THP-1 cells. To be noted: THP-1 monocytic leukemia cells, 0.1 nM [125I]-MIP-1α, 12 h at room temperature. As for the experimental part: Antagonism of MIP-1α Binding to Human THP-1 Cells
CCR1 ligand binding scintillation proximity assay (SPA) description:
For radioligand competition studies, a final concentration of 1×10^5 THP-1 monocytic leukemia cells are combined with 100 μg of LS WGA PS beads (Amersham, Cat.#: RPNQ 0260) in 40 μl of assay buffer (RPMI 1640 without phenol red, 50 mM HEPES, 5 mM MgCl2, 1 mM CaCl2, 0.1% BSA). The THP-1 cell/bead mixture is added to each well of a 384-well assay plate (PerkinElmer, Cat. #:6007899) containing test compound in 3-fold serial dilution, with final concentrations ranging from 8 μM to […]. A final concentration of 0.1 nM [^125I]-MIP-1α (PerkinElmer, Cat. #NEX298) in 20 μl assay buffer is added to the reaction. Sealed assay plates are incubated at room temperature for 12 h then analyzed by LEADseeker™.
The competition data of the test compound over a range of concentrations is plotted as percentage inhibition of radioligand specific bound in the absence of test compound (percent of total signal). After correcting for non-specific binding, IC50 values are determined. The IC50 value is defined as the concentration of test compound needed to reduce [^125I]-MIP-1α specific binding by 50% and is calculated using the four parameter logistic equation to fit the normalized data. The Ki values are determined by application of the Cheng-Prusoff equation to the IC50 values, where Ki=IC50/(1+ligand concentration/Kd) The Kd of [^125I]-MIP-1α in THP-1 cells is 0.1 nM. Each experiment is run in duplicate.

Turning to `CC(NC(=O)c1ccccc1)C(C)C(=O)N1CC[C@](O)(c2ccc(Cl)cc2)C(C)(C)C1` (single isomer, unassigned) [Example 72a], the pIC50 is 5.93.

The compound `CC(=O)N[C@@H]1CC[C@@H](C(=O)N[C@H](C)CC(=O)N2CC[C@](O)(c3ccc(Cl)cc3)C(C)(C)C2)C1` [Example 11, (1R,3R)-3-Acetamido-N—((R)-4-((S)-4-(4-chlorophenyl)-4-hydroxy-3,3-dimethylpiperidin-1-yl)-4-oxobutan-2-yl)cyclopentanecarboxamide] gave a negative-log IC50 (pIC50) of 7.36.

Compound `CC1(C)CN(C(=O)CC2(NC(=O)c3ccccc3)CCOCC2)CC[C@]1(O)c1ccc(Cl)cc1` [Example 15, (S)—N-(4-(2-(4-(4-Chlorophenyl)-4-hydroxy-3,3-dimethylpiperidin-1-yl)-2-oxoethyl)tetrahydro-2H-pyran-4-yl)benzamide] showed a pIC50 of 5.93. Under `CC(CNC(=O)C1CCCC1)C(=O)N1CC[C@](O)(c2ccc(Cl)cc2)C(C)(C)C1` (stereo partly drawn) [Example 21] stands 7.38; under `CC1(C)CN(C(=O)CCNC(=O)c2ccccc2)CC[C@]1(O)c1ccc(Cl)cc1` [Example 27], 7.38; under `C[C@H](CC(=O)N1CC[C@](O)(c2ccc(Cl)cc2)C(C)(C)C1)NC(=O)[C@@H]1CC[C@@H](NC(=O)OC(C)(C)C)C1` [Example 28], 7.33.

`CC(C)(CC(=O)N1CC[C@](O)(c2ccc(Cl)cc2)C(C)(C)C1)NC(=O)C1CCCC1` [Example 35] gave a pIC50 of 8.77.

`Cc1cc(C)c(C(=O)NC(C)(C)CC(=O)N2CC[C@](O)(c3ccc(Cl)cc3)C(C)(C)C2)cn1` [Example 40]: the negative-log IC50 (pIC50) was 8.82.

For the compound `CC(C)(CC(=O)N1CC[C@](O)(c2ccc(Cl)cc2)C(C)(C)C1)NC(=O)c1cccc(C(N)=O)c1` [Example 42], the negative logarithm of the IC50 (pIC50) was 8.74.

In turn, `CC(C)(CC(=O)N1CC[C@](O)(c2ccc(Cl)cc2)C(C)(C)C1)NC(=O)c1cccc(-n2cnnn2)c1` [Example 50] had a pIC50 of 8.66. On to `CC(C)(CC(=O)N1CCC(O)(c2ccc(C#N)cc2)C(C)(C)C1)NC(=O)c1ccccc1` (stereo not drawn) [Example 60], for which the pIC50 was 7.34.

Compound `C[C@H](NC(=O)NC(C)(C)CC(=O)N1CC[C@](O)(c2ccc(Cl)cc2)C(C)(C)C1)C(C)(C)O` [Example 63, 1-(4-((S)-4-(4-Chlorophenyl)-4-hydroxy-3,3-dimethylpiperidin-1-yl)-2-methyl-4-oxobutan-2-yl)-3-((S)-3-hydroxy-3-methylbutan-2-yl)urea] gave a negative-log IC50 (pIC50) of 8.72. Turning to `CCOC(=O)c1cc(C2(O)CCN(C(=O)CC(C)(C)NC(=O)c3ccccc3)CC2(C)C)ccc1Cl` (stereo not drawn) [Example 78], the pIC50 is 6.00. Under `CC(C)(CC(=O)N1CCC(O)(c2ncc(Cl)cc2Cl)C(C)(C)C1)NC(=O)c1ccccc1` (stereo not drawn) [Example 83] stands 6.10. With `CC(C)[C@@H](CNC(=O)Cc1ccccc1)C(=O)N1CC[C@](O)(c2ccc(Cl)cc2)C(C)(C)C1` [Example 89] the figure was 6.09.
